The values below come from publication PMC5925572, “Protoplast-Esculin Assay as a New Method to Assay Plant Sucrose Transporters: Characterization of AtSUC6 and AtSUC7 Sucrose Uptake Activity in Arabidopsis Col-0 Ecotype” (Frontiers in Plant Science, 2018).

Series [1] concerns the target T1, AtSUC6Col-0 (Arabidopsis thaliana, UniProt Q6A329).
T1 construct: gene SUC6; full-length CDS from silique cDNA; untagged in yeast CSY4000 (strain TRY1039); GFP fusion in protoplasts
T1 sequence (Q6A329 1-492): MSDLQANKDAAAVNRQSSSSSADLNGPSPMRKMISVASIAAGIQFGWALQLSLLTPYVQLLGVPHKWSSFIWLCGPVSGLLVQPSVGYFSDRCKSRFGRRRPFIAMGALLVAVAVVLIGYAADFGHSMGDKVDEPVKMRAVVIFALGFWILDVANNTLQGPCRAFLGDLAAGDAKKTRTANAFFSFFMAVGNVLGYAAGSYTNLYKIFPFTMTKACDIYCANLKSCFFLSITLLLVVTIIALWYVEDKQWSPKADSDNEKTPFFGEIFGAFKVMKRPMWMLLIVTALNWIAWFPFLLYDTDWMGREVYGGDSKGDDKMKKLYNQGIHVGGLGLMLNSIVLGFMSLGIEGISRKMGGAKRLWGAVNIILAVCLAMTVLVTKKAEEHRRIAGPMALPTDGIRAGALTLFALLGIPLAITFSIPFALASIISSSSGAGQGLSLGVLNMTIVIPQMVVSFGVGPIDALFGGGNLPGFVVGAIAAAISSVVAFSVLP
Nature of the series: competition of […]-sucrose uptake in yeast. Format: cell-based. The conditions noted are these: 10-fold excess, pH 5.5, weak, value in figure only.

Another series has as its target T2, AtSUC1 (Arabidopsis thaliana, UniProt Q39232).
T2 construct: gene SUC1; full-length CDS, GFP fusion, in Arabidopsis mesophyll protoplasts
T2 sequence (Q39232 1-513): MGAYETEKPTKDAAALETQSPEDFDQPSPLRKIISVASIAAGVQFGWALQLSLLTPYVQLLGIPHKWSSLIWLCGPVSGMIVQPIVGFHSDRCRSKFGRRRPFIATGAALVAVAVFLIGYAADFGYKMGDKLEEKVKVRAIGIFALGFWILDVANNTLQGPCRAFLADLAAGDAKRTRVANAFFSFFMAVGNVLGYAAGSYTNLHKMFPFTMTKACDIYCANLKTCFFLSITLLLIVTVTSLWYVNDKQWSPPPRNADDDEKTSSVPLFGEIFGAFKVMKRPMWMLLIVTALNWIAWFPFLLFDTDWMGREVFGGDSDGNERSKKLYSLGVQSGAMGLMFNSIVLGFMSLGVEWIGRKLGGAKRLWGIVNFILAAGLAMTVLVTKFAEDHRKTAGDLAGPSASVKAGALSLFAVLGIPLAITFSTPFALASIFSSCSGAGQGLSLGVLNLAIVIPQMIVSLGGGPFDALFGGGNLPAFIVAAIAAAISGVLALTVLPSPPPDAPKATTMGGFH
Description: esculin fluorescence uptake into GFP-fusion expressing mesophyll protoplasts. Format: cell-based. The conditions noted are these: 1 mM esculin, W5 buffer pH 5.6.

The next series concerns the target T3, AtSUC3 (Arabidopsis thaliana, UniProt O80605).
T3 construct: gene SUC3; full-length CDS, GFP-AtSUC3 fusion, in Arabidopsis mesophyll protoplasts
T3 sequence (O80605 1-594): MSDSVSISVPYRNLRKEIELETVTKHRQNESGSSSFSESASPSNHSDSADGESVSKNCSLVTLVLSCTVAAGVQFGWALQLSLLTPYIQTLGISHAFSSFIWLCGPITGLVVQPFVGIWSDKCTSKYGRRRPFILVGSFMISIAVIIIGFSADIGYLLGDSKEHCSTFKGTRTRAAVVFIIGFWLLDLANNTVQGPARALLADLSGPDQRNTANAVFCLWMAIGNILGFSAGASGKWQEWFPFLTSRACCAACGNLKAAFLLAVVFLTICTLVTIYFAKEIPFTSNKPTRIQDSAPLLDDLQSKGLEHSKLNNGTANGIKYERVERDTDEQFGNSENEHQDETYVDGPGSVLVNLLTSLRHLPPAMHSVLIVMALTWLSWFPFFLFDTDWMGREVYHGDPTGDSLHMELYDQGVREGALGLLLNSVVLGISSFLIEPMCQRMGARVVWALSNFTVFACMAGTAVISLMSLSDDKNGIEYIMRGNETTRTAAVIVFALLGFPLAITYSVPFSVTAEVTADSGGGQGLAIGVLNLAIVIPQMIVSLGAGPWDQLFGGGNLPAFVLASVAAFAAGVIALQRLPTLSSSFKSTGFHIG
The series is described as above. In kind it is cell-based. Conditions: 1 mM esculin, W5 buffer pH 5.6.

For series [2], the target named is T1, AtSUC6Col-0. Nature of the series: competition of […]-sucrose uptake in yeast; esculin uptake into protoplasts. Format: cell-based. The conditions noted are these: pH 5.5; competition with 100 μM 14C-sucrose; value in figure only.
For the next series, the target named is T4, AtSUC8 (Arabidopsis thaliana, UniProt Q9ZVK6).
T4 construct: gene SUC8; full-length CDS, GFP fusion, in Arabidopsis mesophyll protoplasts
T4 sequence (Q9ZVK6 1-492): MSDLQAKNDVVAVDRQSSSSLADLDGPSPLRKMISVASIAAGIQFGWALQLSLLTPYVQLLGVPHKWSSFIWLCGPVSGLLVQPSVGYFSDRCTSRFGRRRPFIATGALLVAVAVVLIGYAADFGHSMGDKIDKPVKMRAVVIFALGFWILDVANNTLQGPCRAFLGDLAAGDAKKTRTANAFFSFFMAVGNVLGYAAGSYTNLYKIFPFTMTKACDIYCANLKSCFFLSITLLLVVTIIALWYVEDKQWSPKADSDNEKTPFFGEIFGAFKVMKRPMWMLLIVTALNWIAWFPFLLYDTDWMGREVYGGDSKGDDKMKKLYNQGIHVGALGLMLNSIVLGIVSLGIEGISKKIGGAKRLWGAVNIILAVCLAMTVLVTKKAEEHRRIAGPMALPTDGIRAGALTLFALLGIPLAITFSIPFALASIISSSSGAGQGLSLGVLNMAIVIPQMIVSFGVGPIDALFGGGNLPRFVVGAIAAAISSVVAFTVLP
Description: esculin fluorescence uptake into GFP-fusion expressing mesophyll protoplasts. Format: cell-based. Conditions: 1 mM esculin, W5 buffer pH 5.6.

A further series deals with T5, AtSUC9 (Arabidopsis thaliana, UniProt Q9FG00).
T5 construct: gene SUC9; full-length CDS, GFP-AtSUC9 fusion, in Arabidopsis mesophyll protoplasts
T5 sequence (Q9FG00 1-491): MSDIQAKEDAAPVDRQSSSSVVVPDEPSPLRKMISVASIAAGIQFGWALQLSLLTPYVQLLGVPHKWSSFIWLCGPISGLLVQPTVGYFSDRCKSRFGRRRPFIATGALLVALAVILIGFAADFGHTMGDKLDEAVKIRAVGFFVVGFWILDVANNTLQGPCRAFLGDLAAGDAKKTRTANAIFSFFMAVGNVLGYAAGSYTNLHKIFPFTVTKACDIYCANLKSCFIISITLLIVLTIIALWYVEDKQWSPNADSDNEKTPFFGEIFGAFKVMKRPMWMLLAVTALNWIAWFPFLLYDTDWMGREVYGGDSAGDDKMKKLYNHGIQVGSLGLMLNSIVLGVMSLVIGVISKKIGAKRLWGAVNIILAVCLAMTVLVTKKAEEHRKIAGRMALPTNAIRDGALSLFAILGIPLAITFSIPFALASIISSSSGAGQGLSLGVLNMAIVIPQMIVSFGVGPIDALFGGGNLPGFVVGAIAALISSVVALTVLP
The series is described as above. In kind it is cell-based. Conditions: 1 mM esculin, W5 buffer pH 5.6.

Another series concerns the target T6, AtSUC5 (Arabidopsis thaliana, UniProt Q9C8X2).
T6 construct: gene SUC5; full-length CDS, GFP fusion, in Arabidopsis mesophyll protoplasts; Col-0 named for the mutant construct
T6 sequence (Q9C8X2 1-512): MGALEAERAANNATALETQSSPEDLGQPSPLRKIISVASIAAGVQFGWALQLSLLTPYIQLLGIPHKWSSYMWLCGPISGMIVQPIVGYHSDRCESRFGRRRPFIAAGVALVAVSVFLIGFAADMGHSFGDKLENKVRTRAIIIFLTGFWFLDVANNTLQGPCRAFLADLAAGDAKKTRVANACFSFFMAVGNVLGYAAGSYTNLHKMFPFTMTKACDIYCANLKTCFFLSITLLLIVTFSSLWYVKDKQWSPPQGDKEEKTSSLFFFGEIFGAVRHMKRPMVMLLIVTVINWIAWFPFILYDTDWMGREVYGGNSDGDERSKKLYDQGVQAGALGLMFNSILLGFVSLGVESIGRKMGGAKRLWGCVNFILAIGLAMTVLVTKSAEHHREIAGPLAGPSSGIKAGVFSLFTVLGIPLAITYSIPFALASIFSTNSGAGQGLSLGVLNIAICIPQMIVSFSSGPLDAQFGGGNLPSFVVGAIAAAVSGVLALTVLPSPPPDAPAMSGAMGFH
The description is as above. Format: cell-based. Conditions: 1 mM esculin, W5 buffer pH 5.6.

Another series deals with T7, AtSUC2 (Arabidopsis thaliana, UniProt Q39231).
T7 construct: gene SUC2; full-length CDS, C-terminal GFP fusion (AtSUC2-GFP), in Arabidopsis mesophyll protoplasts; Col-0 named for the mutant construct
T7 sequence (Q39231 1-512): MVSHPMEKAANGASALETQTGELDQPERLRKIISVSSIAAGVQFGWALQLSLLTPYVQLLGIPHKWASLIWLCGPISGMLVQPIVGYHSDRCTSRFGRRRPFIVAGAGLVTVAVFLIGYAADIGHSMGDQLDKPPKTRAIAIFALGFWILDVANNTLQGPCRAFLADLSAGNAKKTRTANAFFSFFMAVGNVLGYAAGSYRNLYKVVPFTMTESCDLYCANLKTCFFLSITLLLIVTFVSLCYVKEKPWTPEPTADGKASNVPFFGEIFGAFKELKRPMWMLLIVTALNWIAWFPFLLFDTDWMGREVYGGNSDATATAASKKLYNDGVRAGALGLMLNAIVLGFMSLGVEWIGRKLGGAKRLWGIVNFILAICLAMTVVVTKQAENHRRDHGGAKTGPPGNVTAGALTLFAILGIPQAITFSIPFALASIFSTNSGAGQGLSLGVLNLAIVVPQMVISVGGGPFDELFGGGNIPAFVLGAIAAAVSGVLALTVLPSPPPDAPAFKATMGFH
The series is described as above. In kind it is cell-based. The conditions noted are these: 1 mM esculin, W5 buffer pH 5.6.

Series [3] concerns the target T1, AtSUC6Col-0. Nature of the series: competition of […]-sucrose uptake in yeast. The conditions noted are these: 100 μM 14C-sucrose, maltose in 10-fold excess (1 mM), pH 5.5. Format: cell-based.
Substrate in series [4]: OC[C@H]1O[C@@](CO)(O[C@H]2O[C@H](CO)[C@@H](O)[C@H](O)[C@H]2O)[C@@H](O)[C@@H]1O
Nature of the series: cells, lysate or membranes. Format: cell-based, Arabidopsis thaliana. Conditions: external pH 5.5, H+ symport, labelled compound.

The Km is the concentration of substrate that gives half-maximal velocity.

With `OC[C@H]1O[C@H](OC[C@H]2O[C@H](O[C@]3(CO)O[C@H](CO)[C@@H](O)[C@@H]3O)[C@H](O)[C@@H](O)[C@@H]2O)[C@H](O)[C@@H](O)[C@H]1O` [raffinose], at AtSUC6Col-0 [1], the “competition of 14C-sucrose uptake in yeast” value is reported as “The trisaccharide raffinose slightly interfered with sucrose uptake”.
Turning to `O=c1ccc2cc(O[C@@H]3O[C@H](CO)[C@@H](O)[C@H](O)[C@H]3O)c(O)cc2o1` [esculin], the “esculin fluorescence uptake into GFP-fusion expressing mesophyll protoplasts” value is reported as “AtSUC1, AtSUC5, AtSUC6Col-0, AtSUC8, or AtSUC9 enabled the cells to accumulate esculin” at AtSUC1; “Protoplasts with GFP-AtSUC3 were also able to accumulate esculin” on AtSUC3; “AtSUC1, AtSUC5, AtSUC6Col-0, AtSUC8, or AtSUC9 enabled the cells to accumulate esculin” on AtSUC8; “AtSUC1, AtSUC5, AtSUC6Col-0, AtSUC8, or AtSUC9 enabled the cells to accumulate esculin” on AtSUC9; “AtSUC1, AtSUC5, AtSUC6Col-0, AtSUC8, or AtSUC9 enabled the cells to accumulate esculin” at AtSUC5; “all protoplasts labeled by AtSUC2-GFP had taken up esculin” on AtSUC2. The “competition of 14C-sucrose uptake in yeast; esculin uptake into protoplasts” value on AtSUC6Col-0 [2] is “addition of esculin greatly interfered with sucrose uptake (Figure 4E)”.
With `OC[C@H]1O[C@H](O[C@H]2[C@H](O)[C@@H](O)C(O)O[C@@H]2CO)[C@H](O)[C@@H](O)[C@@H]1O` (stereo partly shown) [maltose], on AtSUC6Col-0 [3], the “% residual 14C-sucrose uptake in 10-fold excess” value is 32%.

B1: AtSUC6Col-0 (Arabidopsis thaliana) (protein)
chain: T1 sequence (Q6A329 1-492)
notes: full-length CDS from silique cDNA; untagged in yeast CSY4000 (strain TRY1039); GFP fusion in protoplasts
In the case of B1, in series [4], the Km was determined as 81.2 ± 2.7 µM.
